Key:
Assay type in all cases: in vivo
[1] = tested on: elastin, collagen, and caspase-3 proteins; experiment: Western blot of elastin, collagen and caspase-3 in chronic obstructive pulmonary disease-induced mice; conditions: COPD induced 30 or 60 days; oral 250 μg/kg/day for the last 15 or 30 days; FIGS. 17 and 18
Procedure: (§1) Eight-week-old female […] mice (Orient Bio Korea Inc., Korea) having no certain pathogen were accommodated in an aseptic laminar-flow cabinet, and bred by supplying a standard solid feed ad libitum. When the following experiment was performed, the mice were made to correspond to 7- to 8-weeks old, and all laboratory animals were managed according to the protocol approved by the Institutional Animal Care and Use Committee of the Chonbuk National University Medical School.
Then, the mixed solution was intranasally administered to the mice of Preparative Example 1 once a day for 30 days or 60 days from the experimental starting date. Here, a group to which only physiological saline was intranasally administered and a group to which a solution obtained by mixing 0.25 μg of LPS with 50 μL of a 10% DMSO solution was administered were used as the controls.
A tissue was extracted from each of the mice manufactured in Experimental Method 1, and finely ground to a cell level. Thereafter, the cells were lysed in a cell lysis buffer containing a protease inhibitor to obtain a cell lysate. The cell lysate was centrifuged to obtain protein. Then, an equivalent amount of the proteins obtained from the cells were loaded on an SDS-PAGE gel and electrophoresed. […] The PVDF membrane was washed three times with a TBS-T buffer, and visualized and quantified using an ECL Western blotting detection reagent. […]

[2] = tested on: asthma-induced mice; experiment: Lung tissue staining, degree of inflammation (grades 0 to 3), asthma-induced mice; conditions: for inflammation score (lung tissue, grades 0 to 3): asthma-induced mice, 48 hours after secondary challenge, OVA group score 3, FIG. 6
Procedure: as §1
(§2) Also, on days 21 and 28 from the experimental starting date, the mice were put into a plastic box (Plexiglas (Rohm & Haas, Philadelphia, Pa.) exposure chamber; 24.5 cm×40.5 cm×15.0 cm), and 1.5% ovalbumin was evaporated using an ultrasonic nebulizer (NE-U12; output 0.8 mL/min; Omron, Japan), and injected into the box for 30 minutes so that the mice inhaled the evaporated ovalbumin (secondary challenge).
A tissue was extracted from each of the mice manufactured in Experimental Method 1, and put into a 10% formalin solution, and reacted for 24 hours to prepare a paraffin block. Thereafter, the paraffin block was microtomed into slices with a size of 3 μm, and each of the slices was attached onto a slide, and heamatoxylin-eosin IHE staining was performed. Then, the slices were observed using a microscope. Here, the degree of inflammation was determined by indicating degrees of inflammation around the airway and blood vessels as grades 0 to 3.
0: There are no inflammatory cells;
1: Inflammatory cells are occasionally observed around the airway and blood vessels;
2: Most of the airway and blood vessels are surrounded by approximately 1 to 5 thin bands of inflammatory cells; and
3: Most of the airway and blood vessels are surrounded by thick bands of inflammatory cells (5 or more).
Preparation Example 3 (α,δ-NA-L-G) was orally administered to the asthma-induced mice of Experimental Method 1 at a concentration of 200 or 400 μg/kg/day 30 minutes before a secondary challenge, and the lung tissue was stained using the method described above in Experimental Method 6 48 hours after the secondary challenge, and the inflammation score was measured. The results are shown in A and B of FIG. 6.

[3] = tested on: neutrophils and eosinophils introduced into the airway; experiment: Inflammatory cells (neutrophils and eosinophils) in bronchoalveolar lavage fluid, Diff-Quik staining, asthma-induced mice
Procedure: as §1, §2
After the mice were anesthetized, a thin tube was inserted into the airway, and a piston process was repeated using a syringe filled with 0.2 mL of physiological saline to obtain a bronchoalveolar lavage fluid. The bronchoalveolar lavage fluid obtained through this piston process was stored at −70° C. when it was not immediately used in the experiments.
50 μL of the bronchoalveolar lavage fluid obtained in Experimental Method 2 was put on a slide used for the cytospin, and centrifuged for 30 minutes. Thereafter, Diff-Quik staining was performed, and inflammatory cells (neutrophils and eosinophils) were observed using a microscope.
Preparation Example 3 (α,δ-NA-L-G) or α,δ N-acetyl-D-glutamine (α,δ-NA-D-G) was orally administered to the asthma-induced mice of Experimental Method 1 daily from the experimental starting date at a concentration of 50, 100, or 200 μg/kg/day, and the cell numbers of neutrophils and eosinophils introduced into the airway through the method of Experimental Method 3 were measured. The results are shown in A and B of FIG. 3. In this case, the cell numbers were measured at 10 hours (neutrophils) or 48 hours (eosinophils) after a secondary challenge.

## CC(=O)NC(=O)CC[C@H](NC(C)=O)C(=O)O [Preparation Example 3, 2,5-diacetamido-5-oxopentanoic acid]
[1]
  levels of the elastin, collagen, and caspase-3 proteins: decreased to that of the negative control (saline)
[2]; oral 200 μg/kg/day
  inflammation score (lung tissue, grades 0 to 3): 2
[2]; oral 400 μg/kg/day
  inflammation score (lung tissue, grades 0 to 3): 1
[2]; experiment [5-6], together with siRNA specific to MKP-1, FIG. 15
  inflammation-relieving effect (lung tissue): disappeared
[2]; experiment [5-6], without MKP-1 siRNA, FIG. 15
  degree of inflammation in the lung tissue: inhibited
[3]; asthma-induced mice, oral daily 50, 100 or 200 μg/kg/day, neutrophils 10 hours, eosinophils 48 hours after secondary challenge, FIG. 3
  inflow of the neutrophils and eosinophils into the airway: very effectively inhibited
[3]; asthma-induced mice, oral daily, from a concentration of 50 μg/kg/day, FIG. 3A
  inhibition of neutrophils, compared to the eosinophils: very effectively inhibited the neutrophils
[3]; experiment [5-6], together with siRNA specific to MKP-1, FIG. 12
  cell numbers of the neutrophils and eosinophils: increased
[3]; experiment [5-6], without MKP-1 siRNA, FIG. 12
  cell numbers of neutrophils and eosinophils: decreased
